According to patent US20170247336A1 (MERCK SHARP & DOHME CORP., priority 2014, published 2017):

What was measured:
human HIF-PHD2 = biological target: T1, human HIF-PHD2 (Homo sapiens, UniProt Q9GZT9); test: HIF-PHD2 inhibition: hydroxylation of HIF-1α peptide, time resolved fluorescence; type: biochemical; conditions: FLAG-tagged full length PHD2; 0.2 μM 2-oxoglutarate, 0.5 μM HIF-1α peptide
T1 construct: FLAG-tagged full length PHD2 expressed in and purified from baculovirus-infected Sf9 cells; FLAG; made in house; host or cells: baculovirus-infected Sf9 cells
T1 sequence (Q9GZT9 whole entry): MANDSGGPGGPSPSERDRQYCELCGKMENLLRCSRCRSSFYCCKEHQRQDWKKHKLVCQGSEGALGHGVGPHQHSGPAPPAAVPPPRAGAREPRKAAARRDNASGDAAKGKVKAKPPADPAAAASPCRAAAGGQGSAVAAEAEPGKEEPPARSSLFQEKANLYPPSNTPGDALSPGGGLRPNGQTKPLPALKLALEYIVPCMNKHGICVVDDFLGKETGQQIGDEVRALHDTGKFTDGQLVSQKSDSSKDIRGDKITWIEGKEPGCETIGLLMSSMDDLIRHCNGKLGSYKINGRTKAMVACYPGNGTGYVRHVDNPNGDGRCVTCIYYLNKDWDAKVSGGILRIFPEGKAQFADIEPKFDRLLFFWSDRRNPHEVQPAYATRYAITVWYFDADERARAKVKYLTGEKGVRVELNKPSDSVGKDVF
Description: To each well of a 384-well plate, 1 μL of test compounds in DMSO (final concentration ranging from 0.3 nM to 10 μM) were added into 20 μl of assay buffer (50 mM Tris pH 7.4/0.01% Tween-20/0.1 mg/ml bovine serum albumin/10 μM ferrous sulfate/1 mM sodium ascorbate/20 μg/ml catalase) containing 0.15 μg/ml FLAG-tagged full length PHD2 expressed in and purified from baculovirus-infected Sf9 cells. After a 5 min preincubation at room temperature, the enzymatic reactions were initiated by the addition of 4 μL of substrates {final concentrations of 0.2 μM 2-oxoglutarate and 0.5 μM HIF-1α peptide biotinyl-DLDLEMLAPYIPMDDDFQL (SEQ ID NO: 1)}. After incubation for 45 minutes at room temperature, the reactions were terminated by the addition of a 25 μL quench/detection mix to a final concentration of 1 mM ortho-phenanthroline, 0.1 mM EDTA, 0.5 nM anti-(His)6 LANCE reagent (Perkin-Elmer Life Sciences), 100 nM AF647-labeled streptavidin (Invitrogen), and 2 μg/ml (His)6-VHL complex {S. Tan Protein Expr. Purif. 21, 224-234 (2001)} and the signals were developed for 30 minutes at room temperature. The ratio of time resolved fluorescence signals at 665 and 620 nm was determined, and percent inhibition was calculated relative to the high control samples (DMSO treated) run in parallel, after background subtraction.

[1] = Pharmacokinetics (half life) in rat after intravenous administration; type: in vivo; conditions: plasma, male Wistar Han rats; for half-life: male, Wistar Han, rat, iv, 0.5 mg/kg, read-out: Half Life (t1/2) (converted)
Description: The half life of compounds described in this application were evaluated in rat. Shown in Table 9 are T½ of selected examples in rat (Wister Han) for selected compounds of the present invention. In addition Table 9 includes half life data for compounds disclosed in International Patent Application published as WO 2013/043621.
The pharmacokinetics of the compounds disclosed in Table 9 were studied in male Wistar Han rats after intravenous (IV) administration. For IV dosing at 0.5 mg/kg in rat, compounds were formulated as a solution in DMSO/PEG400/water (20/60/20, by vol.). Plasma samples obtained from dosed animals were prepared for analysis by means of a single step protein precipitation technique by adding 200 μL of acetonitrile to 50 μL aliquots of individual subject samples. Samples were mixed by vortex for homogeneity and then subjected to centrifugation at 3500 rpm for 10 min. The supernatant (200 μL) was collected and injected into the LC-MS/MS for analysis. Pharmacokinetic parameters were calculated using established non-compartmental methods.

IC50 (human HIF-PHD2) | half-life [1] | Half Life (t1/2) ([1]; IV 0.5 mg/kg) | Compound
2.5 nM | 0.69 h |  | CC(NC(=O)c1cnc(C(=O)NCCC(=O)O)nc1O)c1ccc(-c2ccc(F)cc2)cc1 (racemic) [Example 44, 3-(5-((1-(4′-fluoro-[1,1′-biphenyl]-4-yl)ethyl)carbamoyl)-4-hydroxypyrimidine-2-carboxamido)propanoic acid]
2.3 nM | 1.9 h |  | C[C@@H](CNC(=O)c1ncc(C(=O)NC(c2ccccc2)c2ccccc2)c(O)n1)C(=O)O (single isomer, unassigned) [Example 1]
 | 0.56 h |  | O=C(O)CNC(=O)c1ncc(C(=O)NC(c2ccccc2)c2ccccc2)c(O)n1 [Example 2-12 from WO2013/040789, reference compound]
8.9 nM | 1.68 h |  | O=C(N[C@@H](Cc1c[nH]c2ccccc12)C(=O)O)c1ncc(C(=O)NC(c2ccccc2)c2ccccc2)c(O)n1 [Example 6, (2S)-2-(5-(benzhydrylcarbamoyl)-4-hydroxypyrimidine-2-carboxamido)-3-(3aH-indo1-3-yl)propanoic acid]
1.4 nM | 1.02 h |  | O=C(NC[C@H](O)C(=O)O)c1ncc(C(=O)NC(c2ccccc2)c2ccccc2)c(O)n1 [Example 7, (S)-3-(5-(benzhydrylcarbamoyl)-4-hydroxypyrimidine-2-carboxamido)-2-hydroxypropanoic acid]
2.4 nM | 0.69 h |  | COc1ccc([C@H](NC(=O)c2cnc(C(=O)NCCC(=O)O)nc2O)c2ccccc2)cc1 [Example 37]
1 nM |  |  | O=C(O)CCNC(=O)c1ncc(C(=O)NC(c2ccccc2)c2ccc(C(F)(F)F)cc2)c(O)n1 (stereo not shown) [Example 49, 3-(4-hydroxy-5-((phenyl(4-(trifluoromethyl)phenyl)methyl)carbamoyl)pyrimidine-2-carboxamido)propanoic acid]

Second part, the compound before the results:

Compound | IC50 (human HIF-PHD2) | half-life [1] | Half Life (t1/2) ([1]; IV 0.5 mg/kg)
C[C@H](CNC(=O)c1ncc(C(=O)NC(c2ccccc2)c2ccccc2)c(O)n1)C(=O)O (single isomer, unassigned) [Example 2] | 1.7 nM | 1.45 h | 
COc1ccc(C(NC(=O)c2cnc(C(=O)NCC(C)C(=O)O)nc2O)c2ccc3cc(OC)ccc3n2)cc1 (single isomer, unassigned) [Example 14, (R) or (S)-3-(4-hydroxy-5-(((4-methoxyphenyl)(6-methoxyquinolin-2-yl)methyl)carbamoyl)pyrimidine-2-carboxamido)-2-methylpropanoic acid] | 16 nM | 1.36 h | 
COc1ccc(C(NC(=O)c2cnc(C(=O)NCC(C)C(=O)O)nc2O)c2ccc(OC)cc2)cc1 (single isomer, unassigned) [Example 15, (R) or (S)-3-(5-((bis(4-methoxyphenyl)methy)carbamoyl)-4-hydroxypyrimidine-2-carboxamido)-2-methylpropanoic acid] | 10 nM | 0.99 h | 
CC(CNC(=O)c1ncc(C(=O)NC2(c3ccc(Br)cc3)CC2)c(O)n1)C(=O)O (single isomer, unassigned) [Example 16, (R) or (S)-3-(5-((1-(4-bromophenyl)cyclopropyl)carbamoyl)-4-hydroxypyrimidine-2-carboxamido)-2-methylpropanoic acid] | 1.3 nM | 0.88 h | 
CC(CNC(=O)c1ncc(C(=O)NC2(c3ccc(Br)cc3)CC2)c(O)n1)C(=O)O (single isomer, unassigned) [Example 17, (R) or (S)-3-(5-((1-(4-bromophenyl)cyclopropyl)carbamoyl)-4-hydroxypyrimidine-2-carboxamido)-2-methylpropanoic acid] | 0.8 nM |  | 1.36 h
O=C(O)CCNC(=O)c1ncc(C(=O)NC(c2ccccc2)c2ccccc2)c(O)n1 [Example 2-11 from WO2013/040789, reference compound] |  | 0.28 h | 
O=C(O)c1cc(-c2ncc(C(=O)NC(c3ccccc3)c3ccccc3)c(O)n2)no1 [Example 2-16 from WO2013/040789, reference compound] |  | 0.3 h | 
O=C(NCC1(C(=O)O)CC1)c1ncc(C(=O)NC(c2ccccc2)c2ccccc2)c(O)n1 [Example 4, 1-((5-(benzhydrylcarbamoyl)-4-hydroxypyrimidine-2-carboxamido)methyl)cyclopropanecarboxylic acid] | 8.5 nM | 4.78 h | 
COc1ccc([C@@H](NC(=O)c2cnc(C(=O)NCCC(=O)O)nc2O)c2ccccc2)cc1 [Example 36] | 2.7 nM | 6.76 h | 
COc1ccc(C(NC(=O)c2cnc(C(=O)NCCC(=O)O)nc2O)c2ccc3c(c2)CCO3)cc1 (stereo not shown) [Example 39, 3-(5-(((2,3-dihydrobenzofuran-5-yl)(4-methoxyphenyl)methyl)carbamoyl)-4-hydroxypyrimidine-2-carboxamido)propanoic acid] | 1.7 nM | 1.59 h | 
COc1ccc(C(NC(=O)c2cnc(C(=O)NCCC(=O)O)nc2O)c2ccc(OC)nc2)cn1 [Example 41, 3-(5-((bis(6-methoxypyridin-3-yl)methyl)carbamoyl)-4-hydroxypyrimidine-2-carboxamido)propanoic acid] | 0.8 nM |  | 
O=C(O)CCNC(=O)c1ncc(C(=O)NC(c2ccc(Cl)cc2)c2ccc(Cl)cc2)c(O)n1 [Example 42, 3-(5-((bis(4-chlorophenyl)methyl)carbamoyl)-4-hydroxypyrimidine-2-carboxamido)propanoic acid] | 0.5 nM |  | 
O=C(O)CCNC(=O)c1ncc(C(=O)NC2(c3ccc(Br)cc3)CC2)c(O)n1 [Example 45, 3-(5-((1-(4-bromophenyl)cyclopropyl)carbamoyl)-4-hydroxypyrimidine-2-carboxamido)propanoic acid] | 0.4 nM | 0.62 h | 
CC(NC(=O)c1cnc(C(=O)NCCC(=O)O)nc1O)c1ccc(Oc2ccccc2)cc1 (stereo not shown) [Example 46, 3-(4-hydroxy-5-((1-(4-phenoxyphenyl)ethyl)carbamoyl)pyrimidine-2-carboxamido)propanoic acid] | 1 nM |  | 
O=C(O)CCNC(=O)c1ncc(C(=O)NC(c2ccc(Br)cc2)C(F)(F)F)c(O)n1 (stereo not shown) [Example 47, 3-(5-((1-(4-bromophenyl)-2,2,2-trifluoroethyl)carbamoyl)-4-hydroxypyrimidine-2-carboxamido)propanoic acid] | 1.1 nM |  | 
COc1ccc(C(NC(=O)c2cnc(C(=O)NCCC(=O)O)nc2O)c2ccc(OC)cc2)cc1 [Example 48, 3-(5-((bis(4-methoxyphenyl)methyl)carbamoyl)-4-hydroxypyrimidine-2-carboxamido)propanoic acid] | 0.7 nM |  | 
